Measured values from the NIST ThermoML archive (doi:10.1016/j.fluid.2007.07.016).

Assay: xn = mol fraction of the nth substance listed
Settings: 101 kPa, Liquid; for viscosity: Capillary tube (Ostwald / Ubbelohde) method; for speed of sound: Linear variable-path acoustic interferometer

C1CCOC1 [tetrahydrofuran] + c1ccccc1
Settings	speed of sound, 288.15 K [m/s]	speed of sound, 298.15 K [m/s]	speed of sound, 308.15 K [m/s]	speed of sound, 318.15 K [m/s]	viscosity, 288.15 K [mPa·s]	viscosity, 298.15 K [mPa·s]	viscosity, 308.15 K [mPa·s]	viscosity, 318.15 K [mPa·s]
x1 = 0.0754	1351.7	1302.5	1256	1206.1	0.6847	0.5973	0.536	0.4667
x1 = 0.1518	1350.7	1301.4	1254.7	1205.1	0.6762	0.5921	0.533	0.4665
x1 = 0.223	1349.8	1300.6	1253.6	1204.3	0.6673	0.5863	0.529	0.4659
x1 = 0.2962	1348.5	1299.3	1252.2	1203.2	0.6573	0.5793	0.5237	0.4637
x1 = 0.3556	1347.4	1298.4	1251.3	1202.5	0.6484	0.5728	0.5186	0.4609
x1 = 0.4128	1346.3	1297.5	1250.3	1201.8	0.6394	0.5659	0.5128	0.4574
x1 = 0.4812	1344.6	1296	1248.8	1200.7	0.6277	0.5568	0.505	0.4522
x1 = 0.5506	1342.7	1294.3	1247.1	1199.4	0.6151	0.5467	0.4961	0.4457
x1 = 0.6219	1340.5	1292.4	1245.1	1197.8	0.6013	0.5353	0.4858	0.4379
x1 = 0.6884	1338	1290.2	1243	1196.1	0.5875	0.5237	0.4752	0.4295
x1 = 0.7512	1335.3	1287.9	1240.8	1194.4	0.5739	0.512	0.4643	0.4207
x1 = 0.8119	1332.7	1285.5	1238.6	1192.7	0.56	0.4999	0.4529	0.4112
x1 = 0.8792	1329.3	1282.7	1236.1	1190.7	0.5439	0.4857	0.4394	0.3996
x1 = 0.9388	1326.3	1280.1	1233.8	1188.9	0.5289	0.4724	0.4265	0.3885
x1 = 1	1323.1	1277.6	1231.5	1187.2	0.5129	0.458	0.4125	0.3762
